{
  "source": "patent US5053418A",
  "about": "“Antiprotozoal agents” (Burroughs Wellcome Co., priority 1983, dated 1991)",
  "test_system": "P.yoelii",
  "assay": "In vivo effect on P.yoelii in mice (inhibition of parasitaemia)",
  "settings": "for inhibition in vivo at 0.5 mg/kg: 0.50 mg/Kg × 7; for inhibition in vivo at 1 mg/kg: 1.0 mg/Kg × 7; for ED50 for naphthoquinone: 5760 min",
  "experimental": "The naphthoquinone and the pyridinol were each suspended in 0.25% (w/v) celacol in water by milling for 16-24 hours at 26° C. The suspensions were subsequently serially diluted with 0.25% (w/v) celacol in water. At time 0, 0.1 ml of a suspension of 10^7 P.yoelii-parasitised red blood cells/ml of phosphate buffered saline were injected intravenously into 15-20 g mice through a tail vein. Groups of 5 mice per treatment were dosed orally at times 6, 22, 30, 46, 54, 70 and 78 hours with 0.2 ml of the drug suspension. Tail-blood smears were taken at 96 hours, stained with Giemsa and the percentage of red blood cells infected determined and compared to untreated, infected controls. Percent inhibition was correlated with dose to provide ED50 values for each drug alone. In subsequent experiments dilutions of the two drugs, alone and in combination were used, and the percentage inhibition of parasitaemia and ED50 values (of each drug at fixed concentrations of the other) were determined. The results are shown respectively in Tables V and VI. A number of combinations of clopidol (4-pyridinol) and naphthoquinones were assayed and compared with each drug alone for their antimalarial effect against P.yoelii in vivo by the method of Example 4.",
  "key": {"[1]": {"settings": "Plasmodium yoelii, po, 96 h, naphthoquinone alone"}},
  "data": [
    {"smiles": "CC(C)(C)C1CCC(CC2=C(O)C(=O)c3ccccc3C2=O)CC1", "note": "(stereo not shown)", "values": [
      {"measurement": "inhibition in vivo at 0.5 mg/kg", "setting": "[1]", "result": 10, "unit": "%"},
      {"measurement": "inhibition in vivo at 1 mg/kg", "setting": "[1]", "result": 19, "unit": "%"},
      {"measurement": "% inhibition of parasitaemia (combination)", "setting": "naphthoquinone 0.50 + clopidol 1.4 mg/Kg × 7", "result": 17, "unit": "%"},
      {"measurement": "% inhibition of parasitaemia (combination)", "setting": "naphthoquinone 0.50 + clopidol 4.3 mg/Kg × 7", "result": 61, "unit": "%"},
      {"measurement": "% inhibition of parasitaemia (combination)", "setting": "naphthoquinone 1.0 + clopidol 1.4 mg/Kg × 7", "result": 52, "unit": "%"},
      {"measurement": "% inhibition of parasitaemia (combination)", "setting": "naphthoquinone 1.0 + clopidol 4.3 mg/Kg × 7", "result": 93, "unit": "%"}
    ]},
    {"smiles": "O=C1C(O)=C(C2CCC(C3CCCCC3)CC2)C(=O)c2ccccc21", "note": "(stereo not shown) [2-(4-cyclohexylcyclohexyl)-3-hydroxy-1,4-naphthoquinone]", "values": [
      {"measurement": "inhibition in vivo at 0.019 mg/kg", "setting": "Plasmodium yoelii, po, 96 h, naphthoquinone alone, 0.019 mg/Kg/dose, 7 doses", "result": 13, "unit": "%"},
      {"measurement": "inhibition in vivo at 0.037 mg/kg", "setting": "Plasmodium yoelii, po, 96 h, naphthoquinone alone, 0.037 mg/Kg/dose, 7 doses", "result": 28, "unit": "%"},
      {"measurement": "inhibition in vivo at 0.075 mg/kg", "setting": "Plasmodium yoelii, po, 96 h, naphthoquinone alone, 0.075 mg/Kg/dose, 7 doses", "result": 17, "unit": "%"},
      {"measurement": "inhibition in vivo at 0.15 mg/kg", "setting": "Plasmodium yoelii, po, 96 h, naphthoquinone alone, 0.15 mg/Kg/dose, 7 doses", "result": 16, "unit": "%"},
      {"measurement": "inhibition in vivo at 0.3 mg/kg", "setting": "Plasmodium yoelii, po, 96 h, naphthoquinone alone, 0.30 mg/Kg/dose, 7 doses", "result": 74, "unit": "%"},
      {"measurement": "inhibition in vivo at 0.6 mg/kg", "setting": "Plasmodium yoelii, po, 96 h, naphthoquinone alone, 0.60 mg/Kg/dose, 7 doses", "result": 99, "unit": "%"},
      {"measurement": "ED50 for naphthoquinone", "setting": "fixed clopidol 0.000 mg/kg/dose (alone)", "result": "0.224 (0.224 to 0.208) mg/Kg/dose"},
      {"measurement": "ED50 for naphthoquinone", "setting": "fixed clopidol 0.94 mg/kg/dose", "result": "0.109 (0.125 to 0.0909) mg/Kg/dose"},
      {"measurement": "ED50 for naphthoquinone", "setting": "fixed clopidol 1.9 mg/kg/dose", "result": "0.0762 (0.0975 to 0.0599) mg/Kg/dose"},
      {"measurement": "ED50 for naphthoquinone", "setting": "fixed clopidol 3.75 mg/kg/dose", "result": "0.0519 (0.0599 to 0.0450) mg/Kg/dose"},
      {"measurement": "ED50 for naphthoquinone", "setting": "fixed clopidol 7.5 mg/kg/dose", "result": "0.0219 (0.0274 to 0.0151) mg/Kg/dose"},
      {"measurement": "ED50 for naphthoquinone", "setting": "fixed clopidol 15. mg/kg/dose", "result": "0.0197 (0.0242 to 0.0121) mg/Kg/dose"},
      {"measurement": "% inhibition of parasitaemia (combination)", "setting": "naphthoquinone 0.019 + clopidol 0.94 mg/Kg/dose", "result": 16, "unit": "%"},
      {"measurement": "% inhibition of parasitaemia (combination)", "setting": "naphthoquinone 0.019 + clopidol 1.9 mg/Kg/dose", "result": 23, "unit": "%"},
      {"measurement": "% inhibition of parasitaemia (combination)", "setting": "naphthoquinone 0.019 + clopidol 3.7 mg/Kg/dose", "result": 11, "unit": "%"},
      {"measurement": "% inhibition of parasitaemia (combination)", "setting": "naphthoquinone 0.019 + clopidol 7.5 mg/Kg/dose", "result": 42, "unit": "%"},
      {"measurement": "% inhibition of parasitaemia (combination)", "setting": "naphthoquinone 0.019 + clopidol 15 mg/Kg/dose", "result": 48, "unit": "%"},
      {"measurement": "% inhibition of parasitaemia (combination)", "setting": "naphthoquinone 0.037 + clopidol 0.94 mg/Kg/dose", "result": 20, "unit": "%"},
      {"measurement": "% inhibition of parasitaemia (combination)", "setting": "naphthoquinone 0.037 + clopidol 1.9 mg/Kg/dose", "result": 23, "unit": "%"},
      {"measurement": "% inhibition of parasitaemia (combination)", "setting": "naphthoquinone 0.037 + clopidol 3.7 mg/Kg/dose", "result": 32, "unit": "%"},
      {"measurement": "% inhibition of parasitaemia (combination)", "setting": "naphthoquinone 0.037 + clopidol 7.5 mg/Kg/dose", "result": 73, "unit": "%"},
      {"measurement": "% inhibition of parasitaemia (combination)", "setting": "naphthoquinone 0.037 + clopidol 15 mg/Kg/dose", "result": 77, "unit": "%"},
      {"measurement": "% inhibition of parasitaemia (combination)", "setting": "naphthoquinone 0.075 + clopidol 0.94 mg/Kg/dose", "result": 35, "unit": "%"},
      {"measurement": "% inhibition of parasitaemia (combination)", "setting": "naphthoquinone 0.075 + clopidol 1.9 mg/Kg/dose", "result": 45, "unit": "%"},
      {"measurement": "% inhibition of parasitaemia (combination)", "setting": "naphthoquinone 0.075 + clopidol 3.7 mg/Kg/dose", "result": 69, "unit": "%"},
      {"measurement": "% inhibition of parasitaemia (combination)", "setting": "naphthoquinone 0.075 + clopidol 7.5 mg/Kg/dose", "result": 86, "unit": "%"},
      {"measurement": "% inhibition of parasitaemia (combination)", "setting": "naphthoquinone 0.15 + clopidol 0.94 mg/Kg/dose", "result": 62, "unit": "%"},
      {"measurement": "% inhibition of parasitaemia (combination)", "setting": "naphthoquinone 0.15 + clopidol 1.9 mg/Kg/dose", "result": 80, "unit": "%"},
      {"measurement": "% inhibition of parasitaemia (combination)", "setting": "naphthoquinone 0.15 + clopidol 3.7 mg/Kg/dose", "result": 92, "unit": "%"},
      {"measurement": "% inhibition of parasitaemia (combination)", "setting": "naphthoquinone 0.30 + clopidol 0.94 mg/Kg/dose", "result": 96, "unit": "%"},
      {"measurement": "% inhibition of parasitaemia (combination)", "setting": "naphthoquinone 0.30 + clopidol 1.9 mg/Kg/dose", "result": 98, "unit": "%"}
    ]},
    {"smiles": "O=C1C(O)=C(C2CCC(c3ccc(Cl)cc3)CC2)C(=O)c2ccccc21", "note": "(stereo not shown)", "values": [
      {"measurement": "inhibition in vivo at 0.01 mg/kg", "setting": "Plasmodium yoelii, po, 96 h, naphthoquinone alone, 0.010 mg/Kg × 7", "result": 5, "unit": "%"},
      {"measurement": "inhibition in vivo at 0.02 mg/kg", "setting": "Plasmodium yoelii, po, 96 h, naphthoquinone alone, 0.020 mg/Kg × 7", "result": 12, "unit": "%"},
      {"measurement": "% inhibition of parasitaemia (combination)", "setting": "naphthoquinone 0.010 + clopidol 1.4 mg/Kg × 7", "result": 29, "unit": "%"},
      {"measurement": "% inhibition of parasitaemia (combination)", "setting": "naphthoquinone 0.010 + clopidol 4.3 mg/Kg × 7", "result": 68, "unit": "%"},
      {"measurement": "% inhibition of parasitaemia (combination)", "setting": "naphthoquinone 0.020 + clopidol 1.4 mg/Kg × 7", "result": 55, "unit": "%"},
      {"measurement": "% inhibition of parasitaemia (combination)", "setting": "naphthoquinone 0.020 + clopidol 4.3 mg/Kg × 7", "result": 90, "unit": "%"}
    ]},
    {"smiles": "CC(=O)OC1=C(C2CCCCC2)C(=O)c2ccccc2C1=O", "values": [
      {"measurement": "inhibition in vivo at 2.5 mg/kg", "setting": "Plasmodium yoelii, po, 96 h, naphthoquinone alone, 2.5 mg/Kg × 7", "result": 2, "unit": "%"},
      {"measurement": "inhibition in vivo at 5 mg/kg", "setting": "Plasmodium yoelii, po, 96 h, naphthoquinone alone, 5.0 mg/Kg × 7", "result": 3, "unit": "%"},
      {"measurement": "% inhibition of parasitaemia (combination)", "setting": "naphthoquinone 2.5 + clopidol 1.4 mg/Kg × 7", "result": 3, "unit": "%"},
      {"measurement": "% inhibition of parasitaemia (combination)", "setting": "naphthoquinone 2.5 + clopidol 4.3 mg/Kg × 7", "result": 50, "unit": "%"},
      {"measurement": "% inhibition of parasitaemia (combination)", "setting": "naphthoquinone 5.0 + clopidol 1.4 mg/Kg × 7", "result": 22, "unit": "%"},
      {"measurement": "% inhibition of parasitaemia (combination)", "setting": "naphthoquinone 5.0 + clopidol 4.3 mg/Kg × 7", "result": 86, "unit": "%"}
    ]},
    {"smiles": "CC(C)(C)C1CCC(C2=C(O)C(=O)c3ccccc3C2=O)CC1", "note": "(stereo not shown) [drawing 25]", "values": [
      {"measurement": "inhibition in vivo at 0.6 mg/kg", "setting": "Plasmodium yoelii, po, 96 h, naphthoquinone alone, 0.6 mg/Kg × 7", "result": 24, "unit": "%"},
      {"measurement": "inhibition in vivo at 0.9 mg/kg", "setting": "Plasmodium yoelii, po, 96 h, naphthoquinone alone, 0.9 mg/Kg × 7", "result": 35, "unit": "%"},
      {"measurement": "% inhibition of parasitaemia (combination)", "setting": "naphthoquinone 0.6 + clopidol 2.5 mg/Kg × 7", "result": 74, "unit": "%"},
      {"measurement": "% inhibition of parasitaemia (combination)", "setting": "naphthoquinone 0.6 + clopidol 5.0 mg/Kg × 7", "result": 94, "unit": "%"},
      {"measurement": "% inhibition of parasitaemia (combination)", "setting": "naphthoquinone 0.9 + clopidol 2.5 mg/Kg × 7", "result": 96, "unit": "%"},
      {"measurement": "% inhibition of parasitaemia (combination)", "setting": "naphthoquinone 0.9 + clopidol 5.0 mg/Kg × 7", "result": 97, "unit": "%"}
    ]},
    {"smiles": "CC(C)(C)OC1CCC(C2=C(O)C(=O)c3ccccc3C2=O)CC1", "note": "(stereo not shown)", "values": [
      {"measurement": "inhibition in vivo at 0.13 mg/kg", "setting": "Plasmodium yoelii, po, 96 h, naphthoquinone alone, 0.13 mg/Kg × 7", "result": 1, "unit": "%"},
      {"measurement": "inhibition in vivo at 0.25 mg/kg", "setting": "Plasmodium yoelii, po, 96 h, naphthoquinone alone, 0.25 mg/Kg × 7", "result": 5, "unit": "%"},
      {"measurement": "% inhibition of parasitaemia (combination)", "setting": "naphthoquinone 0.13 + clopidol 4.3 mg/Kg × 7", "result": 84, "unit": "%"},
      {"measurement": "% inhibition of parasitaemia (combination)", "setting": "naphthoquinone 0.13 + clopidol 13 mg/Kg × 7", "result": 31, "unit": "%"},
      {"measurement": "% inhibition of parasitaemia (combination)", "setting": "naphthoquinone 0.25 + clopidol 4.3 mg/Kg × 7", "result": 97, "unit": "%"},
      {"measurement": "% inhibition of parasitaemia (combination)", "setting": "naphthoquinone 0.25 + clopidol 13 mg/Kg × 7", "result": 80, "unit": "%"}
    ]},
    {"smiles": "O=C1C(O)=C(CCCCCCCCC2CCCCC2)C(=O)c2ccccc21", "values": [
      {"measurement": "inhibition in vivo at 0.5 mg/kg", "setting": "[1]", "result": 7, "unit": "%"},
      {"measurement": "inhibition in vivo at 1 mg/kg", "setting": "[1]", "result": 19, "unit": "%"},
      {"measurement": "% inhibition of parasitaemia (combination)", "setting": "naphthoquinone 0.50 + clopidol 2.5 mg/Kg × 7", "result": 10, "unit": "%"},
      {"measurement": "% inhibition of parasitaemia (combination)", "setting": "naphthoquinone 0.50 + clopidol 5.0 mg/Kg × 7", "result": 45, "unit": "%"},
      {"measurement": "% inhibition of parasitaemia (combination)", "setting": "naphthoquinone 1.0 + clopidol 2.5 mg/Kg × 7", "result": 31, "unit": "%"},
      {"measurement": "% inhibition of parasitaemia (combination)", "setting": "naphthoquinone 1.0 + clopidol 5.0 mg/Kg × 7", "result": 55, "unit": "%"}
    ]}
  ]
}
